Data as given in article PMC5690597, “Suppression and resolution of autoimmune arthritis by rhesus θ-defensin-1, an immunomodulatory macrocyclic peptide” (PLoS ONE, 2017).

Tested on: DA/OlaHsd rats with pristane-induced arthritis
Assay: Pristane-induced arthritis (PIA), established disease (AS ≥ 3)
Format: in vivo, rat
Settings: for effect on arthritis progression by day 3 of treatment compared to vehicle controls: MTX 0.25 mg/kg i.p. q3d, etanercept 0.4 mg/kg s.c. q3d, P < 0.05; for rate of complete disease resolution on day 11, comparison with RA drugs: RTD-1 s.c. (4 of 16), MTX 0.25 mg/kg i.p. q3d (1 of 22), etanercept 0.4 mg/kg s.c. q3d (0 of 21), saline 0 of 19, 2 independent experiments
Procedure: Female DA/OlaHsd (D blood group allele and Agouti, also known as Dark Agouti), rats were obtained from Harlan Laboratories (Indianapolis, IN). Animals were allowed to acclimate for 48–72 hours prior to experimental use. Animals were fed standard chow ad lib during a 12-hour day/night cycle. PIA was induced in 5–7 week old animals (90–100 gm) by intradermal injection of 250 μl pristane (Sigma) divided into 3–5 sites at the base of the tail. Animals were monitored daily and disease severity of each limb was scored 0–4 using the method of Brand et al.. The severity scores for all limbs of individual animals were totaled to give an individual’s arthritis severity score (AS) ranging from zero for normal animals to maximum disease score of sixteen. […] In three separate trials, treatment was also blinded to scorers. […] Treatment with saline (vehicle), RTD-1, or anti-arthritic agents was randomized and initiated when an animal first presented with an AS of 3 or more. RTD-1 was administered subcutaneously with doses ranging from 0.2 to 5.0 mg/kg in an injection volume of 0.5 ml at intervals ranging from once a day (qd) to once every seven days (q7d). MTX was administered at 0.25 mg/kg by intraperitoneal injection q3d. Etanercept was administered at 0.4 mg/kg by subcutaneous injection q3d.

Molecule	effect on arthritis progression by day 3 of treatment compared to vehicle controls	rate of complete disease resolution on day 11, comparison with RA drugs
CN(Cc1cnc2nc(N)nc(N)c2n1)c1ccc(C(=O)N[C@@H](CCC(=O)O)C(=O)O)cc1 [MTX, Methotrexate, reference compound]	limited the progression of arthritis	4.5%
Etanercept [reference compound]	limited the progression of arthritis	0%
